According to the OPERA property sets (Mansouri et al. 2018):

SMILES | boiling point [°C] | log10 Koc (L/kg) | log10 vapour pressure (mmHg) | melting point [°C] | ready biodegradability | log10 Henry constant (atm·m³/mol) | log10 Koa | log10 biodegradation half-life (days)
CCCCC(O)CCCC | 193 | – | – | – | – | – | – | –
CCOC1Oc2ccc(OS(C)(=O)=O)cc2C1(C)C (stereo unspecified) | – | 2.53 | -5.31 | 71 | – | – | – | –
COc1ccc2c(c1O)[C@]13CCN(C)[C@H](C2)[C@@H]1C=CC(=O)C3 | – | – | – | 152 | – | – | – | –
Cc1cc(N)ccc1O | – | – | – | 176 | – | – | – | –
CC(C(=O)O)c1ccc(C(=O)c2cccs2)cc1 (stereo unspecified) | – | – | – | 124 | – | – | – | –
Clc1ccc(Oc2cc(Cl)cc(Cl)c2)cc1 | – | – | -3.76 | – | – | – | – | –
COP1(=S)OCc2ccccc2O1 (stereo unspecified) | – | – | – | – | not readily biodegradable | – | – | –
Clc1ccc(Cl)c(-c2c(Cl)ccc(Cl)c2Cl)c1 | – | 5.55 | – | – | – | -3.92 | 8.79 | –
CC(=O)c1cccc2ccccc12 | 297 | – | -3.41 | 34 | – | – | – | –
C=C(C=O)CC | 92.5 | – | – | – | – | – | – | –
Cc1cc(Br)ccc1N | 240 | – | – | 59.5 | – | – | – | –
C[C@]12CC[C@H]3C(=CCc4cc(O)ccc43)[C@@H]1CCC2=O | – | – | – | 239 | – | – | – | –
CCOC(=O)CCl | 144 | – | 0.687 | -21 | – | – | – | –
CC(C)c1ccccc1C(=O)O | – | – | -3.46 | – | – | – | – | –
FC(F)(Cl)C(Cl)Cl | 71.9 | – | – | – | – | – | – | –
CCCC(C)CCC(C)C (stereo unspecified) | 158 | – | – | – | – | – | – | 0.301
Nc1c(Cl)cc([N+](=O)[O-])cc1[N+](=O)[O-] | – | – | – | – | not readily biodegradable | – | – | –
Clc1c(Cl)c(Cl)c(Cl)c(Cl)c1Cl | 325 | 3.74 | -4.74 | 232 | not readily biodegradable | -2.77 | 7.38 | –
Nc1ncc(C=O)s1 | – | – | – | – | readily biodegradable | – | – | –
c1ccc(CSSCc2ccccc2)cc1 | – | – | – | 71.5 | – | – | – | –
COc1cc(C=CC(=O)O)ccc1O | – | – | – | – | readily biodegradable | – | – | –
CC(C)(C)c1cc(CO)cc(C(C)(C)C)c1O | – | – | – | 140 | not readily biodegradable | – | – | –

SMILES | boiling point [°C] | log10 Koc (L/kg) | log10 vapour pressure (mmHg) | melting point [°C] | ready biodegradability | log10 Henry constant (atm·m³/mol) | log10 Koa | log10 biodegradation half-life (days)
CCCCCOC(=O)COc1cc(N2C(=O)C3=C(CCCC3)C2=O)c(F)cc1Cl | – | – | – | 89 | – | – | – | –
CCC1(C)OC(=O)NC1=O (stereo unspecified) | – | – | – | 46 | – | – | – | –
CCCC#CCCC | 132 | – | 0.985 | -101 | – | – | – | –
CC(C)(C)OC(=O)C(F)(F)F | 83 | – | – | – | – | – | – | –
CC(C)(C)OC(=O)CC(=O)OC(C)(C)C | – | – | – | -6 | – | – | – | –
O=C(F)c1ccccc1 | 154 | – | – | -28 | – | – | – | –
Cc1nc([N+](=O)[O-])cn1-c1ccc([N+](=O)[O-])cc1 | – | – | – | 186 | – | – | – | –
C=C[C@H]1C[N@@]2CCC1C[C@H]2c1[nH]c2ccccc2c1CCO | – | – | – | 186 | – | – | – | –
O=C(OCC(=O)N1CCOCC1)c1ccccc1 | – | – | – | 104 | – | – | – | –
Cc1cc(Br)ccc1[N+](=O)[O-] | – | – | – | 78 | – | – | – | –
CC(C)c1ccccc1Cl | 191 | – | – | -74.4 | – | – | – | –
CCNc1ccc2ccccc2c1 | 316 | – | – | 236 | – | – | – | –
Oc1ccc(OCc2ccccc2)cc1 | – | – | – | 122 | – | – | – | –
CCCCCCCCCCCCCCCC(=O)OC[C@@H](O)[C@H]1OC[C@H](O)[C@H]1O | – | – | – | – | readily biodegradable | – | – | –
c1ccc(OCC2CO2)cc1 (stereo unspecified) | 245 | – | -2 | 3.5 | not readily biodegradable | – | – | –
O[C@@H]1CCc2ccccc21 | 220 | – | – | 54.8 | – | – | – | –
NS(=O)(=O)c1cc2c(cc1Cl)NC(Cc1ccc(F)cc1)NS2(=O)=O (stereo unspecified) | – | – | – | 239 | – | – | – | –
CCCCCCOCCOCCO | 260 | – | -2.93 | -40 | – | – | – | –
Fc1cccnc1 | 108 | – | – | – | – | – | – | –
CC(C)C(O)C(C)(C)C (stereo unspecified) | 150 | – | – | -13 | – | – | – | –
CN[C@@H](Cc1ccc(O)cc1)C(=O)O | – | – | – | 293 | – | – | – | –
C[C@@H]1O[C@@H](Oc2c(-c3ccc(O)c(O)c3)oc3cc(O)cc(O)c3c2=O)[C@H](O)[C@H](O)[C@H]1O | – | – | – | 170 | – | – | – | –

SMILES | boiling point [°C] | log10 Koc (L/kg) | log10 vapour pressure (mmHg) | melting point [°C] | ready biodegradability | log10 Henry constant (atm·m³/mol) | log10 Koa | log10 biodegradation half-life (days)
C=CCCC#N | 140 | – | – | – | – | – | – | –
O=COC1CCCCC1 | 163 | – | – | – | – | – | – | –
CCCCCCCCOC(=O)c1ccccc1C(=O)OCCCCCCCC(C)C | 447 | – | – | 98 | – | – | – | –
Cc1ccc(C(C)(C)C)c(O)c1 | – | – | – | 46.5 | not readily biodegradable | – | – | –
Fc1cc(F)c(F)c(F)c1F | 85.7 | – | 1.83 | -47.3 | – | – | – | –
CCCCCCC(C=O)=Cc1ccccc1 | – | – | – | 39.2 | – | – | – | –
Cc1ccc2c(c1)CCC2 | 202 | – | – | – | – | – | – | 0.301
CCC(CO)(CO)COCC(CC)(CO)CO | – | – | – | 110 | not readily biodegradable | – | – | –
BrCc1ccc(CBr)cc1 | 245 | – | – | 144 | – | – | – | –
C1=CSCC1 | 112 | – | – | – | – | – | – | –
C=Cc1ccc2ccccc2c1 | – | – | – | 66 | – | – | – | –
C1=CC2C=CC1C2 | 89.5 | – | – | -19.1 | – | – | – | –
CC1=CC(=O)CCC1 | 201 | – | – | -21 | – | – | – | –
CC(C)CN(CC(C)C)CC(C)C | 192 | – | – | -21.8 | – | – | – | –
CC(C)CC(C)C(C)(C)C (stereo unspecified) | 148 | – | – | – | – | – | – | –
CCCCC/C=C\C/C=C\CCCCCCCC(=O)O | 365 | – | -6.06 | -8.5 | – | – | – | –
O=C1NCc2ccccc21 | 338 | – | – | 151 | – | – | – | –
C1CCNC1 | 86.5 | – | 1.8 | -57.8 | – | -5.62 | 4.07 | –
C=CCCCCCCC(=O)O | – | – | – | 5 | – | – | – | –
Cc1ccc2ccc3ccc(C)nc3c2n1 | – | – | – | 160 | – | – | – | –
CC(=O)c1occc1O | – | – | – | 100 | – | – | – | –
